We go through 4 molecules from patent US20230392140A1, “REVERSE TRANSCRIPTION OF POLYNUCLEOTIDES COMPRISING UNNATURAL NUCLEOTIDES” (Synthorx, Inc., priority 2020, published 2023).

Where two headings read alike, the source gives them in different places.

The test system of series [1] is E. coli SSO. As to the kind of experiment: T-RT retention of sfGFP mRNA extracted from SSO in vivo translation experiments. Also on record: unit of the concentration uncertain. As to conditions: for T-RT retention: mRNA sfGFP(GXT), n = 3. The class given is cell-based. Here is the method: (§1) Reverse transcription. The reverse transcription reactions were conducted according to the manufacturer's instructions of each reverse transcriptase with the following modifications. In all reverse transcription reactions, 1 μg mRNA or 20 ng tRNA, 0.5 mM dNTP and 0.2 mM dNaMTP or dTPT3TP per 20 μL reaction were used unless stated otherwise. For SuperScript III (18080044, ThermoFisher), reactions were incubated at 55° C. for 45 min, inactivated at 70° C. for 15 min, followed by RNase H (M0297S, New England Biolabs, (NEB)) and RNase A (R1253, ThermoFisher) digestion. For SuperScript IV (18090010, ThermoFisher), reactions were incubated at 55° C. for 20 min, inactivated at 80° C. for 10 min, followed by RNase H, RNase A, and Proteinase K (P8107S, New England Biolabs, (NEB)) digestion. For AMV reverse transcriptase (M0277S, New England Biolabs, (NEB)), reactions were incubated at 42° C. for 60 min, inactivated at 80° C. for 5 min, followed by RNase H and RNase A digestion. After digestion, 10 μL of each reaction mixture was denatured with RNA loading dye (B0363S, New England Biolabs, (NEB)) and subjected to 10% denaturing polyacrylamide gel electrophoresis with 8 M urea (CAS 57-13-6, Sigma Aldrich) for cDNA detection. The other 10 μL of the reaction mixture was purified using a commercial RNA purification kit (D7011, Zymo Research; Irvine, CA) and the product cDNA was quantified using Qubit.
(§2) SSO in vivo translation. A 2 mL overnight culture of YZ3+pGEX-MbPylRS TetR cells in 2×YT (Y2377, Sigma Aldrich) supplemented with 50 mM potassium phosphate (CAS 7778-77-0, Sigma Aldrich), 5 μg/mL chloramphenicol (CAS 56-75-7, Sigma Aldrich) and 100 μg/mL carbenicillin (C1613, Sigma Aldrich) (herein afterward referred to in this section as “media”) was diluted to an OD600 of 0.03 in the same media, and grown to an OD600 of 0.3 to 0.4. The culture was rapidly cooled in an ice water bath for 5 min with shaking, and then pelleted at 3,200×g for 10 min. Cells were next washed twice with one culture volume of pre-chilled autoclaved Milli-Q H2O. Cells were then resuspended in additional chilled H2O, to an OD600 of 50-60. For each sample tested, 50 μL of the resulting electrocompetent cells were combined with 0.5 ng of Golden Gate assembled plasmid containing the UBP embedded within the sfGFP and tRNA^Pyl genes and then transferred to a pre-chilled electroporation cuvette (0.2 cm gap). Cells were electroporated (Gene Pulser II; Bio-Rad) according to the manufacturer's instructions for bacteria ([…], 2.5 μF, and 200Ω resistor), then immediately diluted with 950 μL of pre-warmed media. 10 μL of this dilution was then diluted with pre-warmed media to a final volume of 50 μL, supplemented with […] and 10 μM dTPT3TP. The transformation was allowed to recover at 37° C. for 1 h. The recovery culture was plated on solid media supplemented with 50 μg/mL zeocin (R25001, ThermoFisher), 150 μM dNaMTP, 10 μM dTPT3TP, and 2% w/v agar, then allowed to grow at 37° C. overnight.
(§3) Single colonies were isolated and used to inoculate 300 μL liquid media supplemented with 50 μg/mL zeocin (herein afterward referred to in this section as “growth media”) and provided 150 μM dNaMTP, and 10 μM dTPT3TP, then monitored for cell growth via OD600 using an Envision 2103 Multilabel Plate Reader (Perkin Elmer) with a 590/20 nm filter. Cells were collected at an OD600 of ˜0.7, and then an aliquot (100 μL) was subjected to miniprep. Isolated plasmids were subjected to biotin shift assay to determine UBP retention. […] At an OD600 of cultures were supplemented with 250 μM NaMTP and 30 μM TPT3TP unless stated otherwise, as well as 10 mM of the ncAA N6-(2-azidoethoxy)-carbonyl-L-lysine (AzK). The culture was then grown for and additional 20 min before adding IPTG (CAS 367-93-1, Sigma Aldrich) to a concentration of 1 mM and grown for 1 h to induce the transcription of the T7 RNA polymerase, the tRNA^Pyl, and the PylRS. […]

Series [2] relates to E. coli SSO. Description: T-RT retention of M. mazei tRNA extracted from SSO in vivo translation experiments. The class given is cell-based. Also on record: unit of the concentration uncertain. As to conditions: for T-RT retention: tRNA(AYC), n = 3. How it is done:
as §1, §2, §3

Series [3] relates to SuperScript III reverse transcriptase. The following applies: 10 ng RNA per reaction, replicate 1, unnatural dNTP supplied, 55 C.

`COc1cc2ccccc2cc1[C@@H]1O[C@H](COP(=O)(O)OP(=O)(O)OP(=O)(O)O)[C@@H](O)[C@H]1O` [NaMTP]: the “retention of NaM in the mRNA as NaMTP concentration was decreased” value with E. coli SSO [1] (TPT3TP held constant at 250 µM, until NaMTP dropped to less than 50 μM) was “remained high”. Moreover, the T-RT retention in the series with E. coli SSO [1] (NaMTP concentration 12.5 µM) worked out at 0.70; in the series on E. coli SSO [1] (NaMTP concentration 25 µM) it was 0.81; in the series on E. coli SSO [1] (NaMTP concentration 50 µM), 0.88; in the series with E. coli SSO [1] (NaMTP concentration 125 µM), 0.94; in the series with E. coli SSO [1] (NaMTP concentration 250 µM), 0.93.

With `O=P(O)(O)OP(=O)(O)OP(=O)(O)OC[C@H]1O[C@@H](n2ccc3ccsc3c2=S)[C@H](O)[C@@H]1O` [TPT3TP], the “retention of TPT3 in the tRNA as TPT3TP concentration was varied” value with E. coli SSO [2] (NaMTP held constant at 250 (unit uncertain), even at the lowest concentration examined (10 μM)) was “remained high”. For the same molecule, the T-RT retention in the series on E. coli SSO [2] (TPT3TP concentration 12.5 (unit uncertain)) is reported as 0.95; with E. coli SSO [2] (TPT3TP concentration 25 (unit uncertain)), 0.97; in the series on E. coli SSO [2] (TPT3TP concentration 50 (unit uncertain)) it was 0.98; in the series with E. coli SSO [2] (TPT3TP concentration 125 (unit uncertain)), 0.95; in the series on E. coli SSO [2] (TPT3TP concentration 250 (unit uncertain)), 0.94.

For M. mazei tRNA with NaM anticodon, the activity (full-length product ratio) in series [3] (NaM ribonucleotide at second nucleotide of anticodon, 0.8789 at 500 ng) was 0.973.

For M. mazei tRNA with TPT3 anticodon, in series [3] (TPT3 ribonucleotide at second nucleotide of anticodon, 0.4423 at 500 ng), the activity (full-length product ratio) was 0.917.
